Assay results as given in PubChem BioAssay AID509.

Molecular target: Peroxisomal multifunctional enzyme type 2 (Homo sapiens) (UniProt P51659)
Assay: ligand-induced stabilization of human HSD17B4 – biophysical, DSF, SYPRO orange, recombinant protein (AID 509)
Details: recombinant HSD17B4 DSF thermal shift, protein 2 µM, buffer 10 mM HEPES, pH 7.5, NaCl 150 mM, stronger effect = higher value

Peroxisomal multifunctional enzyme type 2 (Homo sapiens), sequence (P51659 whole entry, looked up): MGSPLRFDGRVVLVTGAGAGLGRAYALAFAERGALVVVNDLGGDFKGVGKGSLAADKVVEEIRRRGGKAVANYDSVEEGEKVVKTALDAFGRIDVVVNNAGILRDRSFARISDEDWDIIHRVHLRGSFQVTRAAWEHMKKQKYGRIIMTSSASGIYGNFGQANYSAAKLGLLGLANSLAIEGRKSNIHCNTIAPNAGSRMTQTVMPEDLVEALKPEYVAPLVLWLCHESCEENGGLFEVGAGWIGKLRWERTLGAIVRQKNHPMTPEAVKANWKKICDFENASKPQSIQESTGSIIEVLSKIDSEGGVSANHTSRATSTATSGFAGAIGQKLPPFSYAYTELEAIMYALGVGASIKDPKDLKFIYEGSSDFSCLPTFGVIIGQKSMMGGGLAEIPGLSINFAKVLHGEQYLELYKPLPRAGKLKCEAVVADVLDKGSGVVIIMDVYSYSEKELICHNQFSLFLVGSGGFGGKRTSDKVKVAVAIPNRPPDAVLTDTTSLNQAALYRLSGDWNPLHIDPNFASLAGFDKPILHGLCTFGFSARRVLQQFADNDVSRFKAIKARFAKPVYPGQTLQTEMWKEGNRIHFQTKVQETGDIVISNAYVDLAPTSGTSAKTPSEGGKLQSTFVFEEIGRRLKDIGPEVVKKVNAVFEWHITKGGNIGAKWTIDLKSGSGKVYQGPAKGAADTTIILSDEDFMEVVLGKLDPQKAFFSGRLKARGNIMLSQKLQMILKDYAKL

| Tm shift (at 10 µM) | Compound | Tm shift (at 100 µM) |
| --- | --- | --- |
| 2.1 Celsius | Oc1cc(O)c2cc(O)c(-c3ccc(O)c(O)c3)[o+]c2c1 | – |
| – | O=C1C2(Cl)C3(Cl)C4(Cl)C(Cl)(Cl)C5(Cl)C3(Cl)C1(Cl)C5(Cl)C24Cl (configuration not stated) | 3 Celsius |
